Experimental data reported in US20100222384A1 (priority 2009, published 2010).

Legend:
[1] = system: Pichinde virus CoAn 3739 strain; type: cell-based
[2] = system: Junin virus Candid #1 strain; type: cell-based; details: read-out: EC50, Junin virus inhibition

Row | Compound | PICV in vitro inhibition [1] | EC50 [2] [µM]
1 | COCCCCCCCCCN1C[C@H](O)[C@@H](O)[C@H](O)[C@H]1CO [N9-DNJ, N-(9-Methoxynonyl)deoxynojirimycin] | over 99% | –
2 | CCCOCCCCCCN1C[C@H](O)[C@@H](O)[C@H](O)[C@H]1CO [N7-O-DNJ, N-(7-Oxadecyl)deoxynojirimycin] | 70% | –
3 | CCCCCCCCCN1C[C@H](O)[C@@H](O)[C@H](O)[C@H]1CO [NN-DNJ, N-Nonyl deoxynojirimycin] | – | 60
4 | CCCCN1C[C@H](O)[C@@H](O)[C@H](O)[C@H]1CO [NB-DNJ, N-Butyl deoxynojirimycin] | over 50% | 350
5 | [N-]=[N+]=Nc1ccc(NCCCCCCN2C[C@H](O)[C@@H](O)[C@H](O)[C@H]2CO)c([N+](=O)[O-])c1 [NAP-DNJ, N-(N-{4′-azido-2′-nitrophenyl}-6-aminohexyl)deoxynojirimycin] | – | 10
